Measurements as given in US10322131B2, “Hydroxyacid derivatives, a process for their preparation and pharmaceutical compositions containing them” (LES LABORATOIRES SERVIER, priority 2015, dated 2019).
Counter-ions that a name gives are not always drawn.

Key:
[1] = biological target: Mcl-1 protein (Homo sapiens, UniProt Q07820); experiment: Inhibition of Mcl-1 by the fluorescence polarisation technique; format: binding; conditions: fluorescence polarisation test; Fluorescein labelled ligand 1 nM, Mcl-1 protein 5 nM, ~2 hours at r.t.; read-out: IC50 (M) Mcl-1 FP
Protocol: The relative binding potency of each compound was determined via Fluorescence Polarisation (FP). The method utilised a Fluorescein labelled ligand (Fluorescein-βAla-Ahx-A-REIGAQLRRMADDLNAQY-OH; mw 2,765) which binds to the Mcl-1 protein (such that Mcl-1 corresponds to the UniProtKB® primary accession number: Q07820) leading to an increased anisotropy measured in milli-polarisation (mP) units using a reader. The addition of a compound which binds competitively to the same site as the ligand will result in a greater proportion of unbound ligand in the system indicated by a decrease in mP units.
An 11 point serial dilution of each compound was prepared in DMSO and 2 μl transferred into flat bottomed, low binding, 384-well plate (final DMSO concentration 5%). 38 μl of buffer (10 mM 4-(2-hydroxyethyl)-1-piperazineethanesulfonic acid [HEPES], 150 mM NaCl, 0.05% Tween 20, pH 7.4), containing the Fluorescein labelled ligand (final concentration 1 nM) and Mcl-1 protein (final concentration 5 nM) was then added.
Assay plates were incubated ˜2 hours at r.t. before FP was measured on a Biomek Synergy2 reader (Ex. 528 nm, Em. 640 nm, Cut off 510 nm) and mP units calculated. The binding of increasing doses of test compound was expressed as a percentage reduction in mP compared to a window established between ‘5% DMSO only’ and ‘100% inhibition’ controls. 11-point dose response curves were plotted with XL-Fit software using a 4-Parameter Logistic Model (Sigmoidal Dose-Response Model) and the inhibitory concentrations that gave a 50% reduction in mP (IC50) were determined.

[2] = system: H929 cells; experiment: In vitro cytotoxicity (MTT) on H929 multiple myeloma tumour line; format: cell-based; conditions: Microculture Tetrazolium Assay
Protocol: The cytotoxicity studies were carried out on the H929 multiple myeloma tumour line.
The cells are distributed onto microplates and exposed to the test compounds for 48 hours.
The cell viability is then quantified by a colorimetric assay, the Microculture Tetrazolium Assay (Cancer Res., 1987, 47, 939-942).

[3] = Homo sapiens, NCI-H929, exposed 48 hours

Mcl-1 protein, sequence (Q07820 whole entry): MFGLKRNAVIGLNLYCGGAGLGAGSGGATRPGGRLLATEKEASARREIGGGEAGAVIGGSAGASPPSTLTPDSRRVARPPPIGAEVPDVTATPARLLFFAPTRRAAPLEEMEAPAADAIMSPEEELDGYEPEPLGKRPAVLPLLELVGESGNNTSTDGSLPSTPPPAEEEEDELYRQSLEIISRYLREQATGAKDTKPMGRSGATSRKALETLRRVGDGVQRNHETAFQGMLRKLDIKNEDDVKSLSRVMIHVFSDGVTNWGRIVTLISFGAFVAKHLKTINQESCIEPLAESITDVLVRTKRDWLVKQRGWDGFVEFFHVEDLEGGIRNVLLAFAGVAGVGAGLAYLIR

Row | SMILES | IC50 [1] [M] | IC50 ([2]; exposed 48 hours) [nM] | IC50 [2, 3] [nM]
1 | Cc1c(-c2c(-c3ccc(F)cc3)sc3ncnc(OC(Cc4ccccc4OCc4ccnc(-c5ccc(OP(=O)(O)O)cc5)n4)C(=O)O)c23)ccc(OCCN2CCN(C)CC2)c1Cl [Example 57, 4-[4-({2-[(2R)-2-carboxy-2-{[(5Sa)-5-{3-chloro-2-methyl-4-[2-(4-methylpiperazin-1 yl)ethoxy]phenyl}-6-(4-fluorophehnyl)thieno[2,3-d]pyrimidin-4-yl]oxy}ethyl]phenoxy}methyl)pyrimidin-2-yl]phenyl phosphate disodium salt] | 4.6e-09 | 22.7 | 
2 | Cc1c(-c2c(-c3ccc(F)cc3)sc3ncnc(OC(Cc4ccccc4OCc4ccnc(-c5ccc(OCC6OC(O)C(O)C(O)C6O)cc5)n4)C(=O)O)c23)ccc(OCCN2CCN(C)CC2)c1Cl [Example 20, 6-O-{4-[4-({2-[(2R)-2-carboxy-2-{[(5Sa)-5-{3-chloro-2-methyl-4-[2-(4-methylpiperazin-1-yl)ethoxy]phenyl}-6-(4-fluorophenyl)thieno[2,3-d]pyrimidin-4-yl]oxy}ethyl]phenoxy}methyl)pyrimidin-2-yl]phenyl}-D-mannopyranose] | 4.35e-09 |  | 56.8
3 | Cc1c(-c2c(-c3ccc(F)cc3)sc3ncnc(OC(Cc4ccccc4OCc4ccnc(-c5cccc(COC(=O)NCCN6CCN(C)CC6)c5)n4)C(=O)O)c23)ccc(OCCN2CCN(C)CC2)c1Cl [Example 41, (2R)-2-{[(5Sa)-5-{3-chloro-2-methyl-4-[2-(4-methylpiperazin-1-yl)ethoxy]phenyl}-6-(4-fluorophenyl)thieno[2,3-d]pyrimidin-4-yl]oxy}-3-{2-[(2-{3-[({[2-(4-methylpiperazin-1-yl)ethyl]carbamoyl}oxy)methyl]phenyl}pyrimidin-4-yl)methoxy]phenyl}propanoic acid] | 3.45e-09 |  | 90.8
4 | Cc1c(-c2c(-c3ccc(F)cc3)sc3ncnc(OC(Cc4ccccc4OCc4ccnc(-c5cccc(OCC6COC(C)(C)O6)c5)n4)C(=O)O)c23)ccc(OCCN2CCN(C)CC2)c1Cl [Example 35, (2R) -2-{[(5Sa)-5-{3-chloro-2-methyl-4-[2-(4-methylpiperazin-1-yl)ethoxy]phenyl}-6-(4-fluorophenyl)thieno[2,3-d]pyrimidin-4-yl]oxy}-3-{2-[(2-{3-[(2,2-dimethyl-1,3-dioxolan-4-yl)methoxy]phenyl}pyrimidin-4-yl)methoxy]phenyl}propanoic acid] | 5.15e-09 |  | 4.76
5 | Cc1c(-c2c(-c3ccc(F)cc3)sc3ncnc(OC(Cc4ccccc4OCc4ccnc(-c5ccc(COC6(C)OC7OC(CO)C(O)C(O)C7O6)cc5)n4)C(=O)O)c23)ccc(OCCN2CCN(C)CC2)c1Cl [Example 22, 1,2-O-[(1R)-1-({4-[4-({2-[(2R)-2-carboxy-2-{[(5Sa)-5-{3-chloro-2-methyl-4-[2-(4-methylpiperazin-1-yl)ethoxy]phenyl}-6-(4-fluorophenyl)thieno[2,3-d]pyrimidin-4-yl]oxy}ethyl]phenoxy}methyl)pyrimidin-2-yl]benzyl}oxy)ethylidene]-β-D-mannopyranose] | 5.5e-09 |  | 5.97
6 | COC1OC(COc2ccc(-c3nccc(COc4ccccc4CC(Oc4ncnc5sc(-c6ccc(F)cc6)c(-c6ccc(OCCN7CCN(C)CC7)c(Cl)c6C)c45)C(=O)O)n3)cc2)C(O)C(O)C1O [Example 18, methyl 6-O-{4-[4-({2-[(2R)-2-carboxy-2-{[(5Sa)-5-{3-chloro-2-methyl-4-[2-(4-methylpiperazin-1-yl)ethoxy]phenyl}-6-(4-flurophenyl)thieno[2,3-d]pyrimidin-4-yl]oxy}ethyl]phenoxy}methyl)pyrimidin-2-yl]phenyl}-α-D-mannopyranoside] | 4.1e-09 | 13.9 | 
7 | Cc1c(-c2c(-c3ccc(F)cc3)sc3ncnc(OC(Cc4ccccc4OCc4ccnc(-c5cccc(OCCOCCOCCO)c5)n4)C(=O)O)c23)ccc(OCCN2CCN(C)CC2)c1Cl [Example 38, (2R)-2-{[(5Sa)-5-{3-chloro-2-methyl-4-[2-(4-methylpiperazin-1-yl)ethoxy]phenyl}-6-(4-fluorophenyl)thieno[2,3-d]pyrimidin-4-yl]oxy}-3-(2-{[2-(3-{2-[2-(2-hydroxyethoxy)ethoxy]ethoxy}phenyl)pyrimidin-4-yl]methoxy}phenyl)propanoic acid] | 2.8e-09 |  | 2.76
8 | Cc1c(-c2c(-c3ccc(F)cc3)sc3ncnc(OC(Cc4ccccc4OCc4ccnc(-c5ccccc5OCC(O)CO)n4)C(=O)O)c23)ccc(OCCN2CCN(C)CC2)c1Cl [Example 25, (2R)-2-{[(5Sa)-5-{3-chloro-2-methyl-4-[2-(4-methylpiperazin-1-yl)ethoxy]phenyl}-6-(4-fluorophenyl)thieno[2,3-d]pyrimidin-4-yl]oxy}-3-[2-({2-[2-(2,3-dihydroxypropoxy)phenyl]pyrimidin-4-}methoxy)phenyl]propanoic acid] | 3.45e-09 |  | 10

More lines, in order of falling IC50 [1], values ahead:

Row | IC50 [1] [M] | SMILES | IC50 ([2]; exposed 48 hours) [nM] | IC50 [2, 3] [nM]
9 | 7.35e-09 | COCc1ccccc1-c1nccc(COc2ccccc2C[C@@H](Oc2ncnc3sc(-c4ccc(F)cc4)c(-c4ccc(OCCN5CCN(C)CC5)c(Cl)c4C)c23)C(=O)O)n1 [Example 8, (2R)-2-{[(5Sa)-5-{3-chloro-2-methyl-4-[2-(4-methylpiperazin-1-yl)ethoxy]phenyl}-6-(4-flurophenyl)thieno[2,3-d]pyrimidin-4-yl]oxy}-3-[2-({2-[2-(methoxymethyl)phenyl]pyrimidin-4-yl}methoxy)phenyl]propanoic acid] | 2.07 | 
10 | 6.15e-09 | COCC(COC)Oc1ccc(-c2nccc(COc3ccccc3CC(Oc3ncnc4sc(-c5ccc(F)cc5)c(-c5ccc(OCCN6CCN(C)CC6)c(Cl)c5C)c34)C(=O)O)n2)cc1 [Example 14, (2R)-2-{[(5Sa)-5-{3-chloro-2-methyl-4-[2-(4-methylpiperazin-1-yl)ethoxy]phenyl}-6-(4-fluorophenyl)thieno[2,3-d]pyrimidin-4-yl]oxy}-3-{(2-[(2-{4-[(1,3-dimethoxypropan-2-yl)oxy]phenyl}pyrimidin-4-yl)methoxy]phenyl}propanoic acid] |  | 3.37
11 | 4.9e-09 | Cc1c(-c2c(-c3ccc(F)cc3)sc3ncnc(OC(Cc4ccccc4OCc4ccnc(-c5ccc(CO)cc5)n4)C(=O)O)c23)ccc(OCCN2CCN(C)CC2)c1Cl [Example 4, (2R)-2-{[(5Sa)-5-{3-chloro-2-methyl-4-[2-(4-methylpiperazin-1-yl)ethoxy]phenyl}-6-(4-fluorophenyl)thieno[2,3-d]pyrimidin-4-yl]oxy}-3-[2-({2-[4-hydroxymethyl)phenyl]pyrimidin-4-yl}methoxy)phenyl]propanoic acid] |  | 3.64
12 | 4.05e-09 | Cc1c(-c2c(-c3ccc(F)cc3)sc3ncnc(OC(Cc4ccccc4OCc4ccnc(-c5ccccc5COCC5COC(C)(C)O5)n4)C(=O)O)c23)ccc(OCCN2CCN(C)CC2)c1Cl [Example 11, (2R)-2-{[(5Sa)-5-{3-chloro-2-methyl-4-[2-(4-methylpiperazin-1-yl)ethoxy]phenyl}-6-(4-fluorophenyl)thieno[2,3-d]pyrimidin-4-yl]oxy}-3-(2-{[2-(2-{[(2,2-dimethyl-1,3-dioxolan-4-yl)methoxy]methyl}phenyl)pyrimidin-4-yl]methoxy}phenyl)propanoic acid] |  | 1.99
13 | 4.05e-09 | Cc1c(-c2c(-c3ccc(F)cc3)sc3ncnc(OC(Cc4ccccc4OCc4ccnc(-c5cccc(CO)c5)n4)C(=O)O)c23)ccc(OCCN2CCN(C)CC2)c1Cl [Example 3, (2R)-2-{[(5Sa)-5-{3-chloro-2-methyl-4-[2-(4-methylpiperazin-1-yl)ethoxy]phenyl}-6-(4-fluorophenyl)thieno[2,3-d]pyrimidin-4-yl]oxy}-3-[2-({2-[3-(hydroxymethyl)phenyl]pyrimidin-4-yl}methoxy)phenyl]propanoic acid] |  | 4.08
14 | 3.7e-09 | Cc1c(-c2c(-c3ccc(F)cc3)sc3ncnc(OC(Cc4ccccc4OCc4ccnc(-c5cccc(COC(=O)NCCN6CCCC6)c5)n4)C(=O)O)c23)ccc(OCCN2CCN(C)CC2)c1Cl [Example 44, (2R)-2-{[(5Sa)-5-{3-chloro-2-methyl-4-[2-(4-methylpiperazin-1-yl)ethoxy]phenyl}-6-(4-fluorophenyl)thieno[2,3-d]pyrimidin-4-yl]oxy}-3-{2-[(2-{3-[({[2-(pyrrolidin-1-yl)ethyl]carbamoyl}oxy)methyl]phenyl}pyrimidin-4-yl)methoxy]phenyl}propanoic acid] |  | 28.7
15 | 2.75e-09 | Cc1c(-c2c(-c3ccc(F)cc3)sc3ncnc(OC(Cc4ccccc4OCc4ccnc(-c5ccc(OCC(O)CO)cc5)n4)C(=O)O)c23)ccc(OCCN2CCN(C)CC2)c1Cl [Example 15, (2R)-2-{[(5Sa)-5-{3-chloro-2-methyl-4-[2-(4-methylpiperazin-1-yl)ethoxy]phenyl}-6-(4-fluorophehenyl)thieno[2,3-d]pyrimidin-4-yl]oxy}-3-[2-({2-[4-(2,3-dihydroxypropoxy)phenyl]pyrimidin-4-yl}methoxy)phenyl]propanoic acid] |  | 3.59
